Data: US9051275B2, “4-[-2-[[5-methyl-1-(2-naphtalenyl)-1H-pyrazol-3-yl]oxy]ethyl]morpholine hydrochloride polymorphs and solvates” (Laboratories Del Dr. Esteve, S.A., priority 2010, dated 2015)

What was measured:
[1] = drying for 4 hours at 60° C., 80° C. and 100° C.
sigma-1 (σ-1) receptor = sigma-1 (σ-1) receptor (Homo sapiens, UniProt Q99720); conditions: cited from earlier work
[2] = treatment and prevention of chronic and acute pain, particularly neuropathic pain; cited from earlier work
[3] = Grinding of P027 phase I with catalytic solvent in a ball mill, PXRD analysis; assay type: physicochemical
Description: Approximately 40 mg of P027 phase I were transferred to a ball mill container together with catalytic quantities of the relevant solvent (three drops). The P027 phase I and the solvent were grinded at a maximum frequency of 30 s^−1 for 30 minutes (see Table 23).
The solid samples obtained were analyzed by PXRD. […] FIG. 18 illustrates the PXRD pattern of a phase I form obtained from grinding P027 together with dichloromethane.

[4] = Pressure: tablets of P027 phase I in a hydraulic press, PXRD analysis; assay type: physicochemical
Description: Tablets of P027 phase I were prepared in a hydraulic press at three different pressures (5, 7.5 and 10 tons) for three different times (5, 30 and 90 minutes) [see Table 24].
The solid samples obtained were analyzed by PXRD. […] FIG. 19 illustrates the PXRD pattern of a phase I form obtained by applying a pressure of […] to P027 for 90 minutes.

[5] = 1H NMR check of the stability of the salt in phase I samples; assay type: physicochemical; conditions: several samples of phase I from different crystallizations
Description: In addition, several samples of phase I were analyzed by ^1H NMR in order to check the stability of the salt.

[6] = Solubility of P027 in different solvents at room temperature (visual, successive solvent additions); assay type: physicochemical; conditions: thermodynamic from solid
Description: In order to plan the crystallization screening, […] table 6 using the following methodology (table 7): […] solvent and successive additions (initially 0.2 mL and finally 0.5 mL) of solvent until the solid was completely dissolved or up to a maximum of 8 mL were performed. After each solvent addition the suspension was vigorously stirred for 10-15 minutes and visually inspected to determine if the solid was completely dissolved.

[7] = Descriptive solubility of the P027 compound; assay type: physicochemical
[8] = Dissolution and absorption profile in vivo compared with the related base; conditions: compared with its related base
sigma 2 (σ-2) site = sigma 2 (σ-2) site (Homo sapiens, UniProt Q5BJF2); conditions: cited from earlier work
Chain of sigma 2 (σ-2) site (Q5BJF2 whole entry): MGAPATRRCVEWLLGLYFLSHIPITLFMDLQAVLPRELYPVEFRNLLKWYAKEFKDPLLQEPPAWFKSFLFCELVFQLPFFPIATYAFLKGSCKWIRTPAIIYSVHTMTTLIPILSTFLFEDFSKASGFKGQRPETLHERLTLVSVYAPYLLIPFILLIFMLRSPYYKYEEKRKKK

sigma 1 (σ-1) site = sigma 1 (σ-1) site (Homo sapiens, UniProt Q99720); conditions: cited from earlier work
Chain of sigma 1 (σ-1) site (Q99720 whole entry): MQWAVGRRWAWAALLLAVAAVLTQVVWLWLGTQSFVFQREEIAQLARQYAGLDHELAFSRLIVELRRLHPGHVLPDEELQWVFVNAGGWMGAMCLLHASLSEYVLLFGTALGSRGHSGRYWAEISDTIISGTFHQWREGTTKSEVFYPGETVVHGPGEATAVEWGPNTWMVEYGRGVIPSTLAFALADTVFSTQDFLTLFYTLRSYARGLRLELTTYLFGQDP

Chain of sigma-1 (σ-1) receptor (Q99720 whole entry): as above

With C1COCCO1.Cc1cc(OCCN2CCOCC2)nn1-c1ccc2ccccc2c1.Cl [dioxane solvate, 4-[2-[[5-methyl-1-(2-naphthalenyl)-1H-pyrazol-3-yl]oxy]ethyl]morpholine hydrochloride solvate with dioxane] the “solid form after drying (PXRD)” value [1] was “transformation to Phase I was observed”.
For Cc1cc(OCCN2CCOCC2)nn1-c1ccc2ccccc2c1 [4-[2-[[5-methyl-1-(2-naphthalenyl)-1H-pyrazol-3-yl]oxy]ethyl]morpholine], the “sigma-1 (σ-1) receptor antagonism, selectivity” value (sigma-1 (σ-1) receptor) is listed as “highly selective sigma-1 (σ-1) receptor antagonist” and the analgesic activity [2] is listed as “strong analgesic activity”.
In the case of Cc1cc(OCCN2CCOCC2)nn1-c1ccc2ccccc2c1.Cl [P027 phase I, 4-[2-[[5-methyl-1-(2-naphthalenyl)-1H-pyrazol-3-yl]oxy]ethyl]morpholine hydrochloride phase I crystalline form], the “phase stability after grinding (PXRD)” value ([3]; ball mill, three drops of solvent (Table 23), 30 s^-1 for 30 minutes) is reported as “stable after grinding”, the “phase stability after grinding (PXRD)” value ([3]; grinding together with dichloromethane (FIG. 18)) is reported as “consistent with the standard phase I PXRD pattern demonstrating the phase stability” and the “phase stability under pressure (PXRD)” value ([4]; 5, 7.5 and 10 tons for 5, 30 and 90 minutes) is reported as “stable under pressure”. For the same compound, the “phase stability under pressure (PXRD)” value ([4]; pressure of 30 tons for 90 minutes (FIG. 19)) was “consistent with the standard phase I PXRD pattern demonstrating the phase stability” and the “stability of the salt (1H NMR)” value [5] was “no signs of the lost of HCl or decomposition”.
In the case of Cc1cc(OCCN2CCOCC2)nn1-c1ccc2ccccc2c1.Cl [P027, 4-[2-[[5-methyl-1-(2-naphthalenyl)-1H-pyrazol-3-yl]oxy]ethyl]morpholine hydrochloride], the solubility ([6]; organic solvent or mixture, 1,1,1-Trichloroethane, room temperature) is reported as under 1200 µg/mL, the solubility ([6]; organic solvent or mixture, 1,2-Dichloroethane, room temperature) is reported as 15000 to 25000 µg/mL and the solubility ([6]; organic solvent or mixture, 2-Butanol, solid was dissolved at 60° C., left at room temperature, no solid observed) is reported as 3000 to 4000 µg/mL. It also gave a solubility ([6]; organic solvent or mixture, 3-Pentanone, solid was dissolved at 80° C., left at room temperature, no solid observed) of 1000 to 2000 µg/mL, a solubility ([6]; organic solvent or mixture, Acetone, room temperature) of 4000 to 5000 µg/mL and a solubility ([6]; organic solvent or mixture, Acetonitrile, solid was dissolved at 60° C., left at room temperature, no solid observed) of 10000 to 20000 µg/mL. The solubility ([6]; organic solvent or mixture, Butyl amine, room temperature) was over 50000 µg/mL, the solubility ([6]; organic solvent or mixture, Chlorobenzene, room temperature) was under 1200 µg/mL and the solubility ([6]; organic solvent or mixture, Chloroform, room temperature) was over 50000 µg/mL. The solubility ([6]; organic solvent or mixture, Cyclohexane, room temperature) was under 1200 µg/mL, the solubility ([6]; organic solvent or mixture, Dichloromethane, room temperature) was over 50000 µg/mL and the solubility ([6]; organic solvent or mixture, Diethoxymethane, room temperature) was under 1200 µg/mL. The solubility ([6]; organic solvent or mixture, Diisopropyl ether, room temperature) was under 1200 µg/mL, the solubility ([6]; organic solvent or mixture, Dimethoxymethane, room temperature) was under 1200 µg/mL and the solubility ([6]; organic solvent or mixture, Dimethylcarbonate, solid was dissolved at 80° C., left at room temperature, no solid observed) was 1000 to 2000 µg/mL. For the same compound, the solubility ([6]; organic solvent or mixture, Dimethylformamide, room temperature) was over 50000 µg/mL, the solubility ([6]; organic solvent or mixture, Dimethylsulfoxide, room temperature) was over 50000 µg/mL and the solubility ([6]; organic solvent or mixture, Dioxane, solid was dissolved at 80° C., left at room temperature, no solid observed) was 1000 to 2000 µg/mL. It also gave a solubility ([6]; organic solvent or mixture, Ethanol, room temperature) of 15000 to 25000 µg/mL, a solubility ([6]; organic solvent or mixture, Ethyl acetate, room temperature) of under 1200 µg/mL and a solubility ([6]; organic solvent or mixture, Isobutyl acetate, room temperature) of under 1200 µg/mL. For the same compound, the solubility ([6]; organic solvent or mixture, Isopropanol, solid was dissolved at 60° C., left at room temperature, no solid observed) was 4000 to 5000 µg/mL, the solubility ([6]; organic solvent or mixture, Isopropyl acetate, room temperature) was under 1200 µg/mL and the solubility ([6]; organic solvent or mixture, Methanol, room temperature) was over 50000 µg/mL. It also gave a solubility ([6]; organic solvent or mixture, Methyl acetate, room temperature) of under 1200 µg/mL, a solubility ([6]; organic solvent or mixture, Methyl ethyl ketone, solid was dissolved at 60° C., left at room temperature, no solid observed) of 2000 to 4000 µg/mL and a solubility ([6]; organic solvent or mixture, Methyl isobutyl ketone, room temperature) of under 1200 µg/mL. The solubility ([6]; organic solvent or mixture, Methyl tert-butyl ether, room temperature) was under 1200 µg/mL, the solubility ([6]; organic solvent or mixture, N,N-Dimethylacetamide, room temperature) was 25000 to 50000 µg/mL and the solubility ([6]; organic solvent or mixture, Nitromethane, room temperature) was 25000 to 50000 µg/mL. It also gave a solubility ([6]; organic solvent or mixture, Propyl acetate, room temperature) of under 1200 µg/mL, a solubility ([6]; organic solvent or mixture, Pyridine, room temperature) of 25000 to 50000 µg/mL and a solubility ([6]; organic solvent or mixture, Tetrahydrofuran, room temperature) of under 1200 µg/mL. It also gave a solubility ([6]; organic solvent or mixture, Toluene, room temperature) of under 1200 µg/mL, a solubility ([6]; organic solvent or mixture, Triethylamine, room temperature) of under 1200 µg/mL and a solubility ([6]; organic solvent or mixture, Xylene, room temperature) of under 1200 µg/mL. The solubility ([6]; organic solvent or mixture, n-Butanol, solid was dissolved at 60° C., left at room temperature, no solid observed) was 5000 to 10000 µg/mL, the solubility ([6]; organic solvent or mixture, n-Heptane, room temperature) was under 1200 µg/mL and the solubility ([6]; organic solvent or mixture, n-Hexane, room temperature) was under 1200 µg/mL. The solubility ([6]; Water, room temperature) was over 50000 µg/mL, the “solubility in 1N hydrochloric acid” value ([7]; 1N hydrochloric acid) was “freely soluble” and the “solubility in 1N sodium hydroxide” value ([7]; 1N sodium hydroxide) was “practically insoluble”. The solubility in acetone ([7]; acetone) was “slightly soluble”, the “solubility in dimethyl sulphoxide” value ([7]; dimethyl sulphoxide) was “freely soluble” and the solubility in ethanol ([7]; ethanol) was “sparingly soluble”. The “solubility in ethyl acetate” value ([7]; ethyl acetate) was “practically insoluble”, the solubility in methanol ([7]; methanol) was “freely soluble” and the solubility in water ([7]; water) was “very soluble”. The “dissolution and absorption profile in vivo” value [8] was “better dissolution and absorption profile in vivo than its related base”.
For SKF 10047, the “affinity for the sigma 2 (σ-2) site” value (sigma 2 (σ-2) site) is listed as “micromolar” and the “affinity for the sigma 1 (σ-1) site” value (sigma 1 (σ-1) site) is listed as “nanomolar”.
